According to patent US20150250786A1, “PYRIMIDINE HYDROXY AMIDE COMPOUNDS AS PROTEIN DEACETYLASE INHIBITORS AND METHODS OF USE THEREOF” (THE TRUSTEES OF THE UNIVERSITY OF PENNSYLVANIA, priority 2012, published 2015):
Where two headings read alike, the source gives them in different places.

Key:
[1] = test system: histone H3 lysine 9 acetylation; experiment: Histone H3K9 acetylation in vivo (Western blot, ChIP); design: species or system mouse; conditions: in vivo treatment
mice = experiment: Chronic social defeat (CSD) and social interaction test; format: in vivo, mouse; conditions: after CSD; fluoxetine 20 mg/kg, compound 73 5 mg/kg, compound 101 50 mg/kg
Experimental: Additionally, when combined with a dose of Citalopram with lower activity, these compounds seemed to have an additive effect (See FIG. 10). The dose of Citalopram chosen for this experiment was based on literature stating 2 mg/kg should be subactive, but this dose was found still showing an effect. Mice then underwent chronic social defeat stress, in which the mice are exposed to an aggressive resident mouse for 5 minutes daily for 10 days and are then tested on the 11th day in the social interaction test. Mice treated with vehicle for 20 total days, beginning 10 days before the defeat, show reduced time spent in the interaction zone when a target mouse is present when compared with control mice. […] The percent of mice found to be resilient, defined as spending more time in the interaction zone than the lowest control (i.e. ˜52 s), is higher in HDAC6 inhibitor groups. All behavior testing done using NIH Swiss mice, age 6-10 weeks. Tukey post-hoc analysis: * P=0.01 to 0.05, ** P=0.001-0.01, ***P<0.001 compared with vehicle treated mice.
The effects were observed 30 minutes after acute 50 mg/kg i.p. injection, but not for the lower dose (5 mg/kg). Combination of subactive doses of the HDAC6 selective inhibitors (5 mg/kg) and citalopram (0.5 mg/kg) produced robust potentiation of anti-immobility activity (n=8-29 per condition). […] No difference was observed between HDAC6 WT and KO when treated with the vehicle (n=6-15 per condition). FIG. 16c is a timeline showing treatment period, social defeat and social interaction (SI) testing.
A pro-resilient phenotype in the mouse CSD paradigm after serotonin-selective KO of HDAC6 was previously reported (Espallergues et al, 2012). Whether a chronic pharmacological inhibition of HDAC6 can replicate that phenotype is studied. […] On day 21, 24 h after the last injection, the mice were tested in the social interaction test. […] Significant effects were also observed when data was evaluated in terms of proportion of mice reaching criterion for resiliency.

[2] = test system: NIH Swiss mice; C57BL/6J HDAC6 WT and KO mice; experiment: Tail suspension test (TST); format: in vivo, mouse; conditions: NIH Swiss mice
HDAC6 = molecular target: T1, HDAC6 (Homo sapiens, UniProt Q9UBN7); experiment: HDAC enzyme assay, HDAC6
T1 sequence (Q9UBN7 1-1215): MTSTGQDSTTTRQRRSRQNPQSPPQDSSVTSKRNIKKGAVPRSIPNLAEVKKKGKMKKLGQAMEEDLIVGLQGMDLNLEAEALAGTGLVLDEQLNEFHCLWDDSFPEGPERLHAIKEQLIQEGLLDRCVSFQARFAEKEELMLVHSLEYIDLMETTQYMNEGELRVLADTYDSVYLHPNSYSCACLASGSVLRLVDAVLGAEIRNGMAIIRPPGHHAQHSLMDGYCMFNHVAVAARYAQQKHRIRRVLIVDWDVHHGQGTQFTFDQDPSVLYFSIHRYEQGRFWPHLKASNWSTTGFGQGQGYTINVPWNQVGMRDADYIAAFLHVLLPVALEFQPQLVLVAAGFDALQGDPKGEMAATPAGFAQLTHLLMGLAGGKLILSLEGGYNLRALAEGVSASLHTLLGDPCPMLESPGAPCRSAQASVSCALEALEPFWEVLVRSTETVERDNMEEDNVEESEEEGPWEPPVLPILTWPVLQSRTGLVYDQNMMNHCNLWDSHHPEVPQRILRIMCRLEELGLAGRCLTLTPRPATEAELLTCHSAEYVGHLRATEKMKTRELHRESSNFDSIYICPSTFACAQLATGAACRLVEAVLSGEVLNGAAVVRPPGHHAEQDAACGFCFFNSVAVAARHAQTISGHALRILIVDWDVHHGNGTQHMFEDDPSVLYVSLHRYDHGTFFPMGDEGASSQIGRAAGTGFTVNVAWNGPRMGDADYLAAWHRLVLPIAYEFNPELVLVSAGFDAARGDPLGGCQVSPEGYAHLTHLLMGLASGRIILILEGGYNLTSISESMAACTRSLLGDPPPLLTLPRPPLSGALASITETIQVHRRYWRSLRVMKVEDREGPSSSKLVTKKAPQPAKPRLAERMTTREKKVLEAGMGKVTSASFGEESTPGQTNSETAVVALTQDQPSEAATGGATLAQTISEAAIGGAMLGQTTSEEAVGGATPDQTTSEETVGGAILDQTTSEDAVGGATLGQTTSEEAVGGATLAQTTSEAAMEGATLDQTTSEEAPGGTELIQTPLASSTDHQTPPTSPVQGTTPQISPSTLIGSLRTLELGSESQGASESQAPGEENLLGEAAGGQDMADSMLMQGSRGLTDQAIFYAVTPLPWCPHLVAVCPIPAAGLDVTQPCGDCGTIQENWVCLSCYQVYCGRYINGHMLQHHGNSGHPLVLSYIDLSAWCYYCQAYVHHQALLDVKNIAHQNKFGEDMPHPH

HDAC3 = HDAC3 (Homo sapiens, UniProt O15379); experiment: HDAC enzyme assay, HDAC3
Sequence of HDAC3 (O15379 whole entry): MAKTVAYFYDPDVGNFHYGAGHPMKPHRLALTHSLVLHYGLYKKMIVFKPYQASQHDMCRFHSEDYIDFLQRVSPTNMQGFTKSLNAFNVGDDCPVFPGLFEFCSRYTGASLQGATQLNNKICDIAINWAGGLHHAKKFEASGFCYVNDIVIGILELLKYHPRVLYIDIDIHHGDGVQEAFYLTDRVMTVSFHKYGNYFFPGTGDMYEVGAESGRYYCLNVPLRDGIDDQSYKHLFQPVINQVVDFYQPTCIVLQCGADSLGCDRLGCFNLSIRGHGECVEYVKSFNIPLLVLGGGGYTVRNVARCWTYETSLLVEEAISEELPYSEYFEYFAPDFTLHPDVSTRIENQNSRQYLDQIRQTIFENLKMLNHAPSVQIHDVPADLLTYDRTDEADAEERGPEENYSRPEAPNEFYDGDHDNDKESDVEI
Sequence of HDAC3 (Q9Y618 395-489 partner limits assumed): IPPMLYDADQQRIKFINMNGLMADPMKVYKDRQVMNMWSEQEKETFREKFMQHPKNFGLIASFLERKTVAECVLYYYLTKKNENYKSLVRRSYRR

O=C(NO)c1cnc(NC2(c3cccc(F)c3)CCCCC2)nc1 [Compound 101, 2-((1-(3-fluorophenyl)cyclohexyl)amino)-N-hydroxypyrimidine-5-carboxamide]
acetylation of histone 3 at lysine 9 in Western blot [1]: did not significantly alter
percentage of resilient mice (mice): 58%
immobility in TST ([2]; 5 mg/kg): No significant effect
immobility in TST ([2]; 50 mg/kg i.p., 30 minutes): Significant reductions
IC50 (HDAC6): 7.5 nM
average selectivity over class I HDACs (HDAC6): 700 fold
HDAC3 fold versus HDAC6 (in brackets) (HDAC3): (1498.8x)
HDAC3 fold versus HDAC6 (in brackets) (HDAC3; Table 3): 1496 x
